Earlier results on 3 compounds are cited in patent publication US20040037903A1, “Phytonutrient formula for the relief of chronic pain resulting from inflammation” (priority 2003, published 2004).

Each structure is given as a SMILES string.

Data set [1] deals with PGE2. The following applies: in vivo in rats, curcumin added to the diet.
Data set [2] has as its system TNF-α. The note with it: human cell lines.
Data set [3] concerns 5-HETE. The note with it: in vivo in rats, curcumin added to the diet.
For data set [4], the system named is IL-8. The note with it: human cell lines.
The subject of data set [5] is IL-1B. The note with it: human cell lines.
For data set [6] the following is noted: animal study, similar active dose.
Data set [7] relates to 5-HETE. The following applies: rat polymorphonuclear leukocytes.
Data set [8] relates to IL-6. The following applies: incubation of mouse macrophages with resveratrol.

`COc1cc(/C=C/C(=O)CC(=O)/C=C/c2ccc(O)c(OC)c2)ccc1O` [curcumin, diferuloyl methane]: in data set [1], the “reduction of PGE2” value was 38%. The “inhibition of cytokine TNF-α” value in data set [2] is “at least 50%”. Besides, the “reduction of 5-HETE” value in data set [3] is 80%. In addition, in data set [4], the “inhibition of cytokine IL-8” value is recorded as “at least 50%”. Further, the “inhibition of cytokine IL-1B” value in data set [5] is listed as “at least 50%”.
As for `CCCCC1C(=O)N(c2ccccc2)N(c2ccccc2)C1=O` [phenylbutazone], the ulcerogen index in data set [6] is listed as 1.7.
Take `Oc1ccc(/C=C/c2cc(O)cc(O)c2)cc1` [resveratrol, 3,5,4′-trihydroxy-trans-stilbene]: the “inhibition of 5-HETE” value in data set [7] is given as “greater than 70%”. In addition, the “inhibition of the production of IL-6” value in data set [8] was 34%.
